Experimental data from patent US11535597B2, “Photoreactive ligands and uses thereof” (The Scripps Research Institute, priority 2017, dated 2022).

Test system: proteins in HEK293T cells
Test: MS-based mapping of FFF probe-modified peptides (isoTOP, sites of labeling)
Type: binding, human
Summary of the method: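 Live cells treated with fragment probes (200-250 μM) in serum-free DMEM, with or without competitor ligands. Proteomes clicked to light/heavy biotin-TEV-azide, streptavidin-enriched, trypsin- then TEV-digested; probe-modified peptides identified by LC-MS/MS with any residue allowed as modified site, isoTOP ratios quantified by CIMAGE.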

For `C#CCCC1(CCC(=O)NC23CC4CC(CC(C4)C2)C3)N=N1` [probe 14, N-((3s,5s,7s)-Adamantan-1-yl)-3-(3-(but-3-yn-1-yl)-3H-diazirin-3-yl)propanamide], the “Labeled Peptide of HLA-A HLAC class I histocompatibility antigen, A-2 alpha” value (Accession P01892, residues of probe-labeled peptide, family Uncategorized) was 46-59, the “Labeled Peptide of HMOX2 Heme oxygenase 2” value (Accession P30519 (r933 prints P03519), residues of probe-labeled peptide, family Enzymes) was 69-87 and the “Labeled Peptide of GHITM Growth hormone-inducible transmembrane protein” value (Accession Q9H3K2, residues of probe-labeled peptide, family Uncategorized) was 218-240. The “Labeled Peptide of GOLPH3 Golgi phophoprotein 3” value (Accession Q9H4A6, residues of probe-labeled peptide, family Adapter, Scaffolding, Modulator Proteins) was 75-90, the “Labeled Peptide of HAUS2 HAUS augmin-like complex subunit 2” value (Accession Q9NVX0, residues of probe-labeled peptide, family Adapter, Scaffolding, Modulator Proteins) was 173-189 and the “Labeled Peptide of FUBP1 Far upstream element-binding protein 1” value (Accession Q96AE4, residues of probe-labeled peptide, family Transcription factors, Regulators) was 593-620. For the same compound, the “Labeled Peptide of HAUS1 HAUS augmin-like complex subunit 1” value (Accession Q96CS2, residues of probe-labeled peptide, family Adapter, Scaffolding, Modulator Proteins) was 94-108, the “Labeled Peptide” value (GOLPH3 Golgi phosphoprotein 3, residues of probe-modified peptide) was 75-90 and the “Labeled Peptide” value (HLA-A HLA class I histocompatibility antigen, A-2 alpha, residues of probe-modified peptide) was 46-59. For the same compound, the “Labeled Peptide” value (HMOX2 Heme oxygenase 2, residues of probe-modified peptide) was 69-87, the “Labeled Peptide” value (LIPA Lysosomal acid lipase (P38571), residues of the probe-labeled peptide) was 255-270 and the “Labeled Peptide” value (MAN2B1 Lysosomal alpha-mannosidase (O00754), residues of the probe-labeled peptide) was 291-305. The “Labeled Peptide” value (MCFD2 (Q8NI22), residues of the probe-labeled peptide) was 103-126, the “Labeled Peptide” value (MSH2 (P43246), residues of the probe-labeled peptide) was 848-871 and the “Labeled Peptide” value (MT-ND2 (P03891), residues of the probe-labeled peptide) was 264-272. For the same compound, the “Labeled Peptide” value (NDUFS1 (P28331), residues of the probe-labeled peptide) was 312-325, the “Labeled Peptide” value (NUP160 (Q12769), residues of the probe-labeled peptide) was 638-661 and the “Labeled Peptide” value (NUP205 (Q92621), residues of the probe-labeled peptide) was 1235-1252. The “Labeled Peptide” value (NUP214 (P35658), residues of the probe-labeled peptide) was 770-783, the “Labeled Peptide” value (NUTF2 (P61970), residues of the probe-labeled peptide) was 91-106 and the “Labeled Peptide” value (NXN Nucleoredoxin (Q6DKJ4), residues of the probe-labeled peptide) was 384-403. The “Labeled Peptide” value (P07384 CAPN1 Calpain-1 catalytic subunit) was 175-193, the “Labeled Peptide (residues) of YWHAQ 14-3-3 protein theta” value (P27348, peptide TAFDEAIAELDTLNEDSYK, PDB 5IQP) was 194-212 and the “Labeled Peptide” value (P30519 HMOX2 Heme oxygenase 2) was 69-87. For the same compound, the “Labeled Peptide” value (P30520 ADSS Adenylosuccinate synthetase isozyme 2) was 431-441, the “Labeled Peptide (residues) of PPP1CC Serine/threonine-protein phosphatase PP1-gamma cat” value (P36873, peptide EIFLSQPILLELEAPLK, PDB 4UT2) was 44-60 and the “Labeled Peptide” value (P48729 CSNK1A1 Casein kinase I isoform alpha) was 84-106. The “Labeled Peptide (residues) of RAB7A Ras-related protein Rab-7a” value (P51149, peptide DEFLIQASPR, PDB 1YHN) was 104-113, the “Labeled Peptide” value (P67870 CSNK2B Casein kinase II subunit beta) was 112-134 and the “Labeled Peptide” value (PCNA (P12004), residues of the probe-labeled peptide) was 118-138. For the same compound, the “Labeled Peptide” value (Q8NI60 ADCK3 Chaperone activity of bc1 complex-like, mitochondr) was 277-295, the “Labeled Peptide” value (Q9H4A6 GOLPH3 Golgi phosphoprotein 3) was 75-90 and the “Labeled Peptide (residues) of RUVBL2 RuyB-like 2” value (Q9Y230, peptide ALESDMAPVLIMATNR, PDB 3UK6) was 315-330. For the same compound, the “Labeled Peptide” value (Q13867 BLMH Bleomycin hydrolase) was 111-124, the “Labeled Peptide” value (protein ADCK3 (Q8NI60), residues of probe-labeled peptide) was 277-295 and the “Labeled Peptide” value (protein ADCK3 Chaperone activity of bc1 complex-like, mitochondr, residues of probe-labeled peptide) was 277-295. For the same compound, the “Labeled Peptide” value (protein ADSS (P30520), residues of probe-labeled peptide) was 431-441, the “Labeled Peptide” value (protein ADSS Adenylosuccinate synthetase isozyme 2, residues of probe-labeled peptide) was 431-441 and the “Labeled Peptide” value (protein AGK (Q53H12), residues of probe-labeled peptide) was 283-304. The “Labeled Peptide” value (protein ALDH18A1 (P54886), residues of probe-labeled peptide) was 650-662, the “Labeled Peptide” value (protein ASNA1 (O43681), residues of probe-labeled peptide) was 131-153 and the “Labeled Peptide” value (protein ATP2A2 (P16615), residues of probe-labeled peptide) was 335-352. For the same compound, the “Labeled Peptide” value (protein ATP2B1 (P20020), residues of probe-labeled peptide) was 824-840, the “Labeled Peptide” value (protein ATP2B4 (P23634), residues of probe-labeled peptide) was 812-828 and the “Labeled Peptide” value (protein ATP5B (P06576), residues of probe-labeled peptide) was 407-422. For the same compound, the “Labeled Peptide” value (protein ATP6V1B2 (P21281), residues of probe-labeled peptide) was 437-457, the “Labeled Peptide” value (protein BLMH (Q13867), residues of probe-labeled peptide) was 111-124 and the “Labeled Peptide” value (protein BLMH Bleomycin hydrolase, residues of probe-labeled peptide) was 111-124. The “Labeled Peptide” value (protein CALM3 Calmodulin (P62158), residues of probe-labeled peptide) was 39-75, the “Labeled Peptide” value (protein CALM3 Calmodulin, residues of probe-labeled peptide) was 39-75 and the “Labeled Peptide” value (protein CAPN1 (P07384), residues of probe-labeled peptide) was 175-193. For the same compound, the “Labeled Peptide” value (protein CAPN1 Calpain-1 catalytic subunit, residues of probe-labeled peptide) was 175-193, the “Labeled Peptide” value (protein CCDCC51 (Q96ER9), residues of probe-labeled peptide) was 86-96 and the “Labeled Peptide” value (protein CLPB Caseinolytic peptidase B protein homolog (Q9H078), residues of probe-labeled peptide) was 630-650. For the same compound, the “Labeled Peptide” value (protein COX15 Cytochrome coxidase assembly protein COX15 homolo (Q7KZN9), residues of probe-labeled peptide) was 296-313, the “Labeled Peptide” value (protein CSNK1A1 Casein kinase I isoform alpha (P48729), residues of probe-labeled peptide) was 84-106 and the “Labeled Peptide” value (protein CSNK1A1 Casein kinase I isoform alpha, residues of probe-labeled peptide) was 84-106. The “Labeled Peptide” value (protein CSNK2B Casein kinase II subunit beta (P67870), residues of probe-labeled peptide) was 112-134, the “Labeled Peptide” value (protein CSNK2B Casein kinase II subunit beta, residues of probe-labeled peptide) was 112-134 and the “Labeled Peptide” value (protein DCAF7 DDB1- and CUL4-associated factor 7 (P61962), residues of probe-labeled peptide) was 82-96. For the same compound, the “Labeled Peptide” value (protein FAH Fumarylacetoacetase (P16930), residues of probe-labeled peptide) was 242-253, the “Labeled Peptide” value (protein FAM114A2 Protein FAM114A2 (Q9NRY5), residues of probe-labeled peptide) was 184-196 and the “Labeled Peptide” value (protein O94826 TOMM70A Mitochondrial import receptor subunit TOM70) was 475-494. For the same compound, the “Labeled Peptide” value (protein O96008 TOMM40 Mitochondrial import receptor subunit TOM40 homolog) was 278-293, the “Labeled Peptide” value (protein P05387 RPLP2 60S acidic ribosomal protein P2) was 50-61 and the “Labeled Peptide” value (protein P31948 STIP1 Stress-induced-phosphoprotein 1) was 416-429. The “Labeled Peptide” value (protein P46977 STT3A Dolichyl-diphosphooligosaccharide--protein glycosy) was 330-340, the “Labeled Peptide” value (protein PABPC1 Polyadenylate-binding protein 1, residues of the probe-labeled peptide) was 114-129 and the “Labeled Peptide” value (protein PCNA Proliferating cell nuclear antigen, residues of the probe-labeled peptide) was 118-138. For the same compound, the “Labeled Peptide” value (protein PCYOX1 Prenylcysteine oxidase 1 (Q9UHG3)) was 37-54, the “Labeled Peptide” value (protein PHB Prohibitin (P35232)) was 241-253 and the “Labeled Peptide” value (protein PLS3 Plastin-3 (P13797)) was 72-85. The “Labeled Peptide” value (protein PPP1CB Serine/threonine-protein phosphate PP1-alpha cat (P62140)) was 43-59, the “Labeled Peptide” value (protein PPP1CC Serine/threonine-protein phosphatase PP1-gamma cat, residues of the probe-labeled peptide) was 44-60 and the “Labeled Peptide” value (protein PPP1CC Serine/threonine-protein phosphate PP1-gamma cat (P36873)) was 44-60. For the same compound, the “Labeled Peptide” value (protein PRPF19 Pre-mRNA-processing factor 19 (Q9UMS4)) was 186-196, the “Labeled Peptide” value (protein PSMD3 26S proteasome non-ATPase regulatory subunit 3 (O43242)) was 426-440 and the “Labeled Peptide” value (protein PTBP1 Polypyrimidine tract-binding protein 1 (P26599)) was 219-238. For the same compound, the “Labeled Peptide” value (protein Q8NBX0 SCCPDH Saccharopine dehydrogenase-like oxidoreductase) was 145-167, the “Labeled Peptide” value (protein Q8TBP6 SLC25A40 Solute carrier family 25 member 40) was 136-152 and the “Labeled Peptide” value (protein Q8TCJ2 STT3B Dolichyl-diphosphooligosaccharide--protein glycosy) was 692-703. For the same compound, the “Labeled Peptide” value (protein Q9H2D1 SLC25A32 Mitochondrial folate transporter/carrier) was 118-145, the “Labeled Peptide” value (protein Q9H4I3 TRABD TraB domain-containing protein) was 235-253 and the “Labeled Peptide” value (protein Q9H061 TMEM126A Transmembrane protein 126A) was 85-105. For the same compound, the “Labeled Peptide” value (protein Q9NS69 TOMM22 Mitochondrial import receptor subunit TOM22 homolog) was 106-117, the “Labeled Peptide” value (protein Q9UBX3 SLC25A10 Mitochondrial dicarboxylate carrier) was 171-186 and the “Labeled Peptide” value (protein Q9Y230 RUVBL2 RuvB-like 2) was 315-330. For the same compound, the “Labeled Peptide” value (protein QIL1 Protein QIL1 (Q5XLP0)) was 15-36, the “Labeled Peptide” value (protein RAB7A Ras-related protein Rab-7a (P51149)) was 104-113 and the “Labeled Peptide” value (protein RAB7A Ras-related protein Rab-7a, residues of the probe-labeled peptide) was 104-113. For the same compound, the “Labeled Peptide” value (protein RABEPK Rab9 effector protein with kelch motifs (Q7Z6M1)) was 87-100, the “Labeled Peptide” value (protein RARS Arginine--tRNA ligase, cytoplasmic (P54136)) was 528-540 and the “Labeled Peptide” value (protein RARS Arginine--tRNA ligase, cytoplasmic, residues of the probe-labeled peptide) was 528-540. The “Labeled Peptide” value (protein RUVBL2 RuvB-like 2, residues of the probe-modified peptide) was 315-330, the “Labeled Peptide” value (protein TXNDC17 Thioredoxin domain-containing protein 17, residues of the probe-modified peptide) was 4-17 and the “Labeled Peptide” value (protein VPS33A Vacuolar protein sorting-associated protein 33A, residues of the probe-modified peptide) was 233-262. The “Labeled Peptide” value (protein YWHAQ 14-3-3 protein theta, residues of the probe-modified peptide) was 194-212, the “Labeled Peptide” value (residues of probe-labeled peptide on VDAC3 Voltage-dependent anion-slective channel protein, Accession # Q9Y277) was 164-174 and the “Labeled Peptide” value (residues of probe-labeled peptide on VMP1 Vacuole membrane protein 1, Accession # Q96GC9) was 214-243. The “Labeled Peptide” value (residues of probe-labeled peptide on VPS33A Vacuolar protein sorting-associated protein 33A, Accession # Q96AX1) was 233-262, the “Labeled Peptide” value (residues of probe-labeled peptide on VPS51 Vacuolar protein sorting-associated protein 51 hom, Accession # Q9UID3) was 742-763 and the “Labeled Peptide” value (residues of probe-labeled peptide on YWHAQ 14-3-3 protein theta, Accession # P27348) was 194-212.
